# Columns and labels:
# [1] = system: patients exhibiting similar symptoms with respect to pulmonary hypertension; experiment: Examples 12-17: procedures of Examples 2 through 5 repeated with zonisamide or acetazolamide substituted for topiramate; format: in vivo, human
# [2] = system: patient exhibiting similar symptoms with respect to pulmonary hypertension; experiment: Examples 6-11: procedure of Example 1 repeated with zonisamide or acetazolamide substituted for topiramate; format: in vivo, human
# Type V phosphodiesterase = Type V phosphodiesterase (Homo sapiens, UniProt O76074); conditions: comparison with avanafil (and sildenafil); cited from earlier work
# [3] = system: patient with pulmonary hypertension; experiment: Example 5 case report: patient with COPD and pulmonary hypertension treated with phentermine and topiramate; format: in vivo, human; conditions: topiramate 100 mg daily with phentermine 15 mg daily
# Experimental: The fifth patient was a person with obesity, diabetes, hypertension, hypothyroidism, elevated cholesterol, COPD, and pulmonary hypertension. […] They had stopped smoking 1PPD about 10 years previously. Their baseline medications were verapamil 240 mg daily, losartan-HCTZ 50-12.5 daily, levothyroxine 0.125 mg daily, Pulmicort […] 2 puffs twice daily, Foradil powder […] twice daily, metformin 500 mg twice daily, atorvastatin 10 mg daily, fluticasone nasal spray 50 mcg 2 puffs daily and vitamins. They were short of breath with minimal exertion. They were 67″ tall, weight 228 lbs, BMI 36, initial BP 138/70.
# They were treated with phentermine 15 mg daily and topiramate 100 mg daily. Three years into treatment, their fasting glucose is 106 off metformin compared with 114 on metformin at baseline, their blood pressure is 115/60 on valsartan 80 mg daily and diltiazem CD 120 mg daily (changed from verapamil because of constipation). Their weight has been stable for six months in the low 180's.
# [4] = system: patient with probable mild pulmonary hypertension; experiment: Example 3 case report: patient with probable mild pulmonary hypertension treated with phentermine and topiramate; format: in vivo, human
# Experimental: The third patient was a person with obesity, hypertension, elevated cholesterol, heart murmur and dyspnea on exertion. Their medications were atorvastatin 10 mg daily, captopril 12.5 mg daily, trazodone 50 mg daily, spironolactone 50 mg daily, and bupropion 150 mg daily. They were 64″ tall, weight 319 lbs, BMI 55, initial BP 148/76.
# They were treated with phentermine 15 mg daily and topiramate 200 mg daily along with a low fat, low carbohydrate diet and exercise. They were instructed to stop both the spironolactone and captopril since this weight loss treatment results in marked lowering of blood pressure in most patients. […] Blood pressure one week later was 140/86 and weight 317 lbs.
# [5] = system: patient with known pulmonary hypertension; experiment: Example 4 case report: patient with known pulmonary hypertension and sleep apnea treated with bupropion, topiramate and phentermine; format: in vivo, human; conditions: topiramate 100 mg daily with bupropion 300 mg
# Experimental: The fourth patient was a person with obesity, sleep apnea on CPAP, known pulmonary hypertension with PA pressure estimated at 76 mm Hg by echocardiogram, valvular heart disease (mild-moderate tricuspid and mitral regurgitation), depression and hypertension. They smoked just under half pack of cigarettes per day and was a CO2 retainer by ABG's with a PCO2 of 54 mm Hg on room air. They were short of breath with minimal exertion. Their baseline medications were furosemide 80 mg daily, potassium chloride 20 mEq daily, lisinopril 10 mg daily, carvedilol 25 mg BID, escitalopram 10 mg daily, alprazolam 0.5 mg TID, and nightly oxygen. They were 68″ tall, weight 284 lbs, BMI 43½, initial BP 122/76. They had 1+ edema of both lower legs and was short of breath on exertion.
# They were treated with aspirin 81 mg coated daily, bupropion 300 mg daily, topiramate 100 mg daily, phentermine 5 mg daily, along with a low fat, low carbohydrate diet and light exercise. By the first 4 weeks of follow-up, they had lost 17 lbs and was breathing much better. […] They were still smoking cigarettes occasionally. They had lost 38 lbs. Their blood pressure was 110/70 on only lisinopril 10 mg daily. Furosemide and carvedilol had been gradually discontinued due to improved edema, blood pressure, and breathing. An echocardiogram performed at three months into the program was mostly unchanged from their prior echocardiogram except that the pulmonary artery pressure was reported as normal. This change was consistent with their clinical picture.
# [6] = system: patients with pulmonary hypertension; experiment: Summary of the five patients of Examples 1-5; format: in vivo, human
# From the text: However, the improvement in pulmonary pressures appeared to be independent of weight loss in these patients.
# [7] = system: patient with pulmonary hypertension; experiment: Example 2 case report: patient with pulmonary hypertension treated with phentermine and topiramate; format: in vivo, human; conditions: topiramate 200 mg daily with phentermine 15 mg daily
# Experimental: The second patient was a person with obesity, hypothyroidism, hypertension, valvular heart disease, elevated cholesterol and depression. Their medications were levothyroxine 50 mcg daily, metoprolol 50 mg daily, venlafaxine 37.5 mg daily, progesterone 100 mg daily, esterified estrogens 1.25 mg daily, and methyltestosterone 2.5 mg daily. They were 63″ tall, weight 178 lbs, BMI 32, initial BP 120/78. They had trace edema of both ankles and a systolic murmur of I/VI along the left sternal border. […] A comment on the report stated that this was a slight increase in pulmonary pressure compared with an echocardiogram taken seven months earlier.
# They were treated with phentermine 15 mg daily and topiramate 200 mg daily along with a low fat, low carbohydrate diet and exercise. Metoprolol was discontinued after four months due to low blood pressure. Eight months after treatment started, their weight was 165 lbs, BP was 122/76, and they had no edema. […] No MR was seen.
# [8] = system: patient with elevated pulmonary artery pressure (pulmonary hypertension); experiment: Example 1 case report: patient with mildly elevated pulmonary artery pressure treated with bupropion and topiramate; format: in vivo, human
# Experimental: They were 66″ tall, weight 282 lbs, BMI 46, initial BP 118/80. They had 2+ edema of both ankles, clear lungs, and a systolic murmur along the left sternal border, grade II/VI.
# They were started on atorvastatin 10 mg daily as well as bupropion 150 mg daily and topiramate 200 mg daily along with a low fat, low carbohydrate diet and exercise. […] They lost weight continuously on the program and 4 months later had lost 20 lbs. […] After six months, the patient temporarily discontinued the medications. Within a few days, even though their weight was the same, their chest pressure and shortness of breath on exertion returned. On resumption of the treatment, the symptoms resolved within a few days.
smiles,measurement,setting,value
CC(=O)Nc1nnc(S(N)(=O)=O)s1 [acetazolamide],results relative to Examples 2 through 5,"[1]; 100 mg, 250 mg, and 500 mg acetazolamide substituted for topiramate",Substantially the same results
same,results relative to Example 1,"[2]; Example 9, 100 mg acetazolamide substituted for the topiramate",Substantially the same results
same,results relative to Example 1,"[2]; Example 10, 250 mg acetazolamide substituted for the topiramate",Substantially the same results
same,results relative to Example 1,"[2]; Example 11, 500 mg acetazolamide substituted for the topiramate",Substantially the same results
CCCc1nn(C)c2c(=O)[nH]c(-c3cc(S(=O)(=O)N4CCN(C)CC4)ccc3OCC)nc12 [sildenafil],potency as phosphodiesterase inhibitor relative to avanafil,Type V phosphodiesterase,approximately twice as potent as avanafil
CC1(C)O[C@@H]2[C@@H](CO[C@@]3(COS(N)(=O)=O)OC(C)(C)O[C@@H]23)O1 [topiramate],fasting glucose,"[3]; person, three years, off metformin, baseline 114 on metformin",106
same,pulmonary pressures (echocardiogram),"[3]; 30 months into treatment, baseline 45-50 mm Hg",normal
same,symptoms,[3]; exercising more without shortness of breath,symptomatically much better
same,weight,"[3]; three years, stable for six months, baseline 228 lbs",low 180's
same,blood pressure,"[3]; three years, on valsartan 80 mg and diltiazem CD 120 mg daily, baseline 138/70",115/60
same,echocardiogram findings of pulmonary hypertension,"[4]; person, topiramate 200 mg daily with phentermine 15 mg daily (bupropion 150 mg daily at baseline), three weeks, before significant weight loss, baseline probable mild pulmonary hypertension",no findings of pulmonary hypertension
same,weight,"[4]; topiramate 200 mg daily with phentermine 15 mg daily, four weeks, baseline 319 lbs",317 lbs
same,blood pressure,"[4]; topiramate 200 mg daily with phentermine 15 mg daily, four weeks, spironolactone and captopril stopped, baseline 148/76",140/86
same,weight lost,"[5]; person, phentermine 5 mg, aspirin 81 mg daily, diet, light exercise, first 4 weeks, baseline 284 lbs",17 lbs
same,blood pressure,"[5]; phentermine 5 mg daily, four months, on only lisinopril 10 mg daily, baseline 122/76",110/70
same,pulmonary artery pressure (echocardiogram),"[5]; phentermine 5 mg daily, three months, baseline estimated 76 mm Hg",normal
same,breathing,"[5]; phentermine 5 mg, aspirin 81 mg daily, first 4 weeks",much better
same,weight lost,"[5]; phentermine 5 mg, aspirin 81 mg daily, four months",38 lbs
same,clinical status,"[5]; phentermine 5 mg, aspirin 81 mg daily, four months, able to exercise normally without shortness of breath",clinically markedly improved
same,symptomatic improvement,[6]; all patients,symptomatic improvement in all patients
same,improvement in pulmonary hypertension,"[6]; topiramate with phentermine and/or bupropion, diet and weight loss program",surprising improvement
same,weight,"[7]; person, diet and exercise, eight months, baseline 178 lbs",165 lbs
same,edema,"[7]; eight months, baseline trace edema of both ankles",no edema
same,BP,"[7]; eight months, metoprolol discontinued, baseline 120/78",122/76
same,pulmonary artery pressure (echocardiogram),"[7]; nine months on treatment, baseline 39 mm Hg",33 mm Hg
same,"mitral regurgitation (MR, echocardiogram)","[7]; nine months on treatment, baseline mild MR",No MR
same,tricuspid regurgitation (echocardiogram),"[7]; nine months on treatment, baseline moderate TR",mild
same,chest pressure and shortness of breath on exertion after discontinuing the medications,"[8]; medications temporarily discontinued after six months, within a few days, weight the same",returned
same,exercise tolerance,"[8]; person, topiramate 200 mg daily with bupropion 150 mg daily, atorvastatin 10 mg daily, diet and exercise, two weeks after start",markedly improved
same,symptoms on resumption of the treatment,"[8]; resumption of topiramate 200 mg/bupropion 150 mg treatment, within a few days",resolved
same,chest pressure and shortness of breath on exertion,"[8]; topiramate 200 mg daily with bupropion 150 mg daily, atorvastatin 10 mg daily, two weeks after start",gone
same,weight lost,"[8]; topiramate 200 mg daily with bupropion 150 mg daily, atorvastatin, diet and exercise, 4 months, baseline 282 lbs",20 lbs
same,pulmonary pressures (echocardiogram),"[8]; topiramate 200 mg daily with bupropion 150 mg daily, 2 weeks after start of treatment, baseline 36 mm Hg",normal
NS(=O)(=O)Cc1noc2ccccc12 [zonisamide],results relative to Examples 2 through 5,"[1]; 25 mg, 50 mg, and 100 mg zonisamide substituted for topiramate",Substantially the same results
same,results relative to Example 1,"[2]; Example 6, 25 mg zonisamide substituted for the topiramate",Substantially the same results
same,results relative to Example 1,"[2]; Example 7, 50 mg zonisamide substituted for the topiramate",Substantially the same results
same,results relative to Example 1,"[2]; Example 8, 100 mg zonisamide substituted for the topiramate",Substantially the same results
